Data on 17 compounds can be found in US11851449B2, “Heterocyclic amide compounds having an RORvt inhibitory action” (TAKEDA PHARMACEUTICAL COMPANY LIMITED, priority 2013, dated 2023).

Molecules are shown by their SMILES. Like-named read-outs stand apart in the source and are kept apart here.

The target of assay [1] is T1, RORγt (Homo sapiens, UniProt P51449).
T1 sequence (P51449 1-497 isoform P51449-2): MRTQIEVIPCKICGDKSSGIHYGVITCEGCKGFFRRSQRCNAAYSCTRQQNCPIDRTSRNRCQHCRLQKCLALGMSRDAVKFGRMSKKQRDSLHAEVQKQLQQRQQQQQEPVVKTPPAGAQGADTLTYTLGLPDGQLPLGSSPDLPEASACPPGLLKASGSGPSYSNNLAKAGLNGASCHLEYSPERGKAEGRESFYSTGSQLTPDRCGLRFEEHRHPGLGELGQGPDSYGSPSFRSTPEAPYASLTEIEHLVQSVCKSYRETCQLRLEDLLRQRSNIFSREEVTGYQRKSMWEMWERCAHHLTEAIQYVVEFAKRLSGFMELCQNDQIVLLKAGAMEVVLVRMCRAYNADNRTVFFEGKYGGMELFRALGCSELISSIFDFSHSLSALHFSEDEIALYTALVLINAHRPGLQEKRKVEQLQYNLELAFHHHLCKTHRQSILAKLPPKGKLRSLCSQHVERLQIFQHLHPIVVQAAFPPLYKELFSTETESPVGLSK
In words: Jurkat reporter test (human IL-17 ROR response element luciferase reporter). In kind it is cell-based. Particulars: read-out: luminescence level inhibitory rate (%) at test compound 3 μM. A digest of the protocol:
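Luminescence (Bright-Glo, 10 min, RT) was measured after overnight compound treatment of electroporated Jurkat cells (1350 V, 10 ms interval, 3 pulses). The reaction medium was RPMI with 10% lipid-reduced FCS, 10 mM HEPES (pH 7.5) and 5 μM lovastatin.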
In general terms: In a reporter assay the amount or activity of a reporter protein is the signal.

Assay [2] addresses T1, RORγt. Briefly: RORγt binding test (TR-FRET, fluorescent-labeled cholesterol). The following applies: read-out: binding inhibitory rate (%) of fluorescent-labeled cholesterol to RORγt at test compound 1 μM. The method, boiled down:
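His-tagged RORγt and BODIPY-cholesterol were incubated with compound for 20 min at room temperature in Tris-HCl pH 7.5, 100 mM NaCl, 1 mM DTT and 0.1% BSA. Terbium anti-His antibody was then added for a further 20 min.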

The target of assay [3] is T1, RORγt. In words: Cofactor recruitment test (Alpha Screen, biotinylated SRC-1 peptide). Format: biochemical. Particulars: read-out: signal value inhibitory rate (%) at test compound 1 μM. The procedure:
Cofactor Recruitment Test
Cofactor recruitment test was performed by Alpha Screen (Histidine Detection Kit, PerkinElmer) method. First, a test compound was diluted with an assay buffer (50 mM Tris-HCl (pH 7.5), 50 mM KCl, 1 mM DTT, 0.1% BSA) and added to a 384 well plate by 5 μL. […] The mixture was stood in a dark place for 1 hr, and the signal value was measured by Envision (PerkinElmer).

Setting [4] is: test compound 3 μM, Jurkat cells.

For the compound `COc1ccc([C@@H](NC(=O)c2cc(O)no2)C(=O)Nc2cc(F)c([Si](C)(C)C)c(F)c2)cc1` [Example 99, N-((1R)-2-((3,5-difluoro-4-(trimethylsilyl)phenyl)amino)-1-(4-methoxyphenyl)-2-oxoethyl)-3-hydroxy-1,2-oxazole-5-carboxamide], the inhibition at 3 µM on RORγt [1] (Jurkat) is 99.9%. For the same compound, the inhibition at 1 µM stood at 102% at RORγt [2] and 94.3% on RORγt [3].
`COCc1ccc([C@@H](NC(=O)Cn2cnccc2=O)C(=O)Nc2ccc(C(C)(C)C)c(F)c2)cc1` [Example 100, (2R)—N-(4-tert-butyl-3-fluorophenyl)-2-(4-(methoxymethyl)phenyl)-2-(((6-oxopyrimidin-1(6H)-yl)acetyl)amino)acetamide]: the inhibition at 3 µM at RORγt [1] (setting [4]) turned out to be 99.4%. The inhibition at 1 µM at RORγt [2] was determined as 99.6%; on RORγt [3] it was 86.3%.
The like results for `COCc1ccc([C@@H](NC(=O)[C@@H]2CNC(=O)C2)C(=O)Nc2ccc(C(C)(C)C)c(F)c2)cc1` [Example 101, (3S)—N-((1R)-2-((4-tert-butyl-3-fluorophenyl)amino)-1-(4-(methoxymethyl)phenyl)-2-oxoethyl)-5-oxopyrrolidine-3-carboxamide] were, in that order, 99.5%, 101% and 87.6%.
Consider `COCc1ccc([C@@H](NC(=O)[C@H]2CNC(=O)C2)C(=O)Nc2ccc(C(C)(C)C)c(F)c2)cc1` [Example 102, (3R)—N-((1R)-2-((4-tert-butyl-3-fluorophenyl)amino)-1-(4-(methoxymethyl)phenyl)-2-oxoethyl)-5-oxopyrrolidine-3-carboxamide], for which the inhibition at 3 µM at RORγt [1] (setting [4]) was determined as 97.8%. Also, the inhibition at 1 µM at RORγt [2] is 100%; on RORγt [3], 83.8%.
On to `COCc1ccc([C@@H](NC(=O)CC(C)(C)C(=O)O)C(=O)Nc2cc(F)c([Si](C)(C)C)c(F)c2)cc1` [Example 103, 4-(((1R)-2-((3,5-difluoro-4-(trimethylsilyl)phenyl)amino)-1-(4-(methoxymethyl)phenyl)-2-oxoethyl)amino)-2,2-dimethyl-4-oxobutanoic acid], for which the inhibition at 3 µM on RORγt [1] (Jurkat) is 100%. Moreover, the figures for the inhibition at 1 µM on RORγt [2] and on RORγt [3] were 102% and 96.2%, respectively.
As for `COCc1ccc(C(NC(=O)[C@@H]2CNC(=O)C2)C(=O)Nc2ccc(C(C)(C)C)c(Cl)c2)cc1` (stereo partly drawn) [Example 104, (3S)—N-(2-((4-tert-butyl-3-chlorophenyl)amino)-1-(4-(methoxymethyl)phenyl)-2-oxoethyl)-5-oxopyrrolidine-3-carboxamide], the inhibition at 3 µM on RORγt [1] (setting [4]) came out at 96.1%. Moreover, the inhibition at 1 µM on RORγt [2] was 101%; at RORγt [3], 74.9%.
The like results for `COCc1ccc([C@@H](NC(=O)Cc2nnc(C)o2)C(=O)Nc2ccc(C(C)(C)C)c(F)c2)cc1` [Example 105, (2R)—N-(4-tert-butyl-3-fluorophenyl)-2-(4-(methoxymethyl)phenyl)-2-(((5-methyl-1,3,4-oxadiazol-2-yl)acetyl)amino)acetamide] were, in that order, 100%, 101% and 85.5%.
Consider `COCc1ccc([C@@H](NC(=O)CCCC(=O)O)C(=O)Nc2cc(F)c([Si](C)(C)C)c(F)c2)cc1` [Example 107, 5-(((1R)-2-((3,5-difluoro-4-(trimethylsilyl)phenyl)amino)-1-(4-(methoxymethyl)phenyl)-2-oxoethyl)amino)-5-oxopentanoic acid], for which the inhibition at 3 µM on RORγt [1] (Jurkat) was determined as 100%. The inhibition at 1 µM on RORγt [2] was determined as 103%; at RORγt [3], 95.7%.
With `COCc1ccc([C@@H](NC(=O)CCC(=O)O)C(=O)Nc2cc(F)c([Si](C)(C)C)c(F)c2)cc1` [Example 108, 4-(((1R)-2-((3,5-difluoro-4-(trimethylsilyl)phenyl)amino)-1-(4-(methoxymethyl)phenyl)-2-oxoethyl)amino)-4-oxobutanoic acid], the inhibition at 3 µM at RORγt [1] (Jurkat) was found to be 99.7%. In addition, the inhibition at 1 µM is 100% at RORγt [2] and 95.3% at RORγt [3].
As to `CC(C)(C)c1ccc(NC(=O)[C@H](NC(=O)[C@@H]2CNC(=O)C2)c2ccc3c(c2)CCO3)cc1F` [Example 111, (3S)—N-((1R)-2-((4-tert-butyl-3-fluorophenyl)amino)-1-(2,3-dihydro-1-benzofuran-5-yl)-2-oxoethyl)-5-oxopyrrolidine-3-carboxamide], the inhibition at 3 µM at RORγt [1] (setting [4]) came out at 97.4%. Moreover, the values for the inhibition at 1 µM at RORγt [2] and at RORγt [3] were 100% and 53%, respectively.
Turning to `Cn1ncc2cc([C@@H](NC(=O)[C@@H]3CNC(=O)C3)C(=O)Nc3ccc([Si](C)(C)C)c(F)c3)ccc21` [Example 112, (3S)—N-((1R)-2-((3-fluoro-4-(trimethylsilyl)phenyl)amino)-1-(1-methyl-1H-indazol-5-yl)-2-oxoethyl)-5-oxopyrrolidine-3-carboxamide], the inhibition at 3 µM at RORγt [1] (Jurkat) was determined as 100%. Also, the inhibition at 1 µM on RORγt [2] amounted to 103%; at RORγt [3], 83.2%.
As for `COCc1ccc([C@@H](NC(=O)[C@H]2CNC(=O)C2)C(=O)Nc2cc(F)c(C(C)(C)C)c(F)c2)cc1` [Example 113, (3R)—N-((1R)-2-((4-tert-butyl-3,5-difluorophenyl)amino)-1-(4-(methoxymethyl)phenyl)-2-oxoethyl)-5-oxopyrrolidine-3-carboxamide], the inhibition at 3 µM at RORγt [1] (setting [4]) amounted to 99.7%. The inhibition at 1 µM on RORγt [2] stood at 102%; on RORγt [3], 83.9%.
Turning to `COCc1ccc([C@@H](NC(=O)Cc2cc(O)no2)C(=O)Nc2cc(F)c(C(C)(C)C)c(F)c2)cc1` [Example 114, (2R)—N-(4-tert-butyl-3,5-difluorophenyl)-2-(((3-hydroxy-1,2-oxazol-5-yl)acetyl)amino)-2-(4-(methoxymethyl)phenyl)acetamide], the inhibition at 3 µM on RORγt [1] (setting [4]) is 102%. Moreover, the inhibition at 1 µM on RORγt [2] worked out at 101%; on RORγt [3], 90.1%.
The like results for `COCc1ccc([C@@H](NC(=O)Cn2ccc(=O)[nH]c2=O)C(=O)Nc2ccc(C(C)(C)C)c(F)c2)cc1` [Example 116, (2R)—N-(4-tert-butyl-3-fluorophenyl)-2-(((2,4-dioxo-3,4-dihydropyrimidin-1(2H)-yl)acetyl)amino)-2-(4-(methoxymethyl)phenyl)acetamide] were, in that order, 99.8%, 103% and 76.6%.
As for `COCc1ccc([C@@H](NC(=O)CC2CC(=O)NC(=O)C2)C(=O)Nc2ccc(C(C)(C)C)c(F)c2)cc1` [Example 117, (2R)—N-(4-tert-butyl-3-fluorophenyl)-2-(((2,6-dioxopiperidin-4-yl)acetyl)amino)-2-(4-(methoxymethyl)phenyl)acetamide], the inhibition at 3 µM on RORγt [1] (setting [4]) came out at 98.5%. Further, the inhibition at 1 µM turned out to be 103% at RORγt [2] and 78.4% at RORγt [3].
For the compound `COc1ccc(C(NC(=O)Cn2cnc3ccccc32)C(=O)Nc2ccc([Si](C)(C)C)cc2)cc1` (stereo not drawn) [Example 289, 2-((1H-benzimidazol-1-ylacetyl)amino)-2-(4-methoxyphenyl)-N-(4-(trimethylsilyl)phenyl)acetamide], the inhibition at 3 µM on RORγt [1] (Jurkat) was 100%. The inhibition at 1 µM on RORγt [2] came out at 99.6%; on RORγt [3] it was 87.2%.
Regarding `Cn1ncc2cc([C@@H](NC(=O)Cc3cc(O)no3)C(=O)Nc3cc(F)c(C(C)(C)C)c(F)c3)ccc21` [Example 419, (2R)-N-(4-tert-butyl-3,5-difluorophenyl)-2-(((3-hydroxy-1,2-oxazol-5-yl)acetyl)amino)-2-(1-methyl-1H-indazol-5-yl)acetamide], the inhibition at 3 µM on RORγt [1] (setting [4]) came to 101%. Besides, the inhibition at 1 µM on RORγt [2] was 103%; at RORγt [3] it was 87%.
